# Reference: PubChem BioAssay AID2060336 (Molecular Pharmacology Branch, DTP, NCI, 2025)
# Test system: 958767-090-R-J1-PDC spheroid growth
# Assay: Anticancer human tumor 958767-090-R-J1-PDC patient-derived head and neck squamous carcinoma cell line growth inhibition [IpAb]
# Details: spheroids with HUVEC and MSC; for IC50: curve of first compound; for viability, T/C: stronger effect = lower value
# Method in brief: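 Combinations with ipatasertib or abemaciclib were tested on tumour spheroids holding HUVEC (25%) and MSC (15%) alongside 60% malignant cells. Top concentration was at or near clinical Cmax (10 microM if undefined), descending in half-log steps.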
# 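Note: spheroids exposed to agents for 7 days.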
# 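Throughout, for viability, T/C: 100% = DMSO vehicle control wells.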
smiles,measurement,setting,value
CC(=O)c1c(C)c2cnc(Nc3ccc(N4CCNCC4)cn3)nc2n(C2CCCC2)c1=O + CC(C)NCC(C(=O)N1CCN(c2ncnc3c2C(C)CC3O)CC1)c1ccc(Cl)cc1,IC50,second compound 0.1 µM,> 0.3 µM
same,IC50,second compound 0.316 µM,0.3 µM
same,IC50,second compound 1 µM,< 0.000949 µM
same,IC50,second compound 3.16 µM,< 0.000949 µM
same,IC50,second compound 10 µM,< 0.000949 µM
same,"viability, T/C","second compound 0.1 µM, first compound 0.000949 µM",83.8%
same,"viability, T/C","second compound 0.1 µM, first compound 0.003 µM",70.5%
same,"viability, T/C","second compound 0.1 µM, first compound 0.00949 µM",68.7%
same,"viability, T/C","second compound 0.1 µM, first compound 0.03 µM",67.7%
same,"viability, T/C","second compound 0.1 µM, first compound 0.0949 µM",53.4%
same,"viability, T/C","second compound 0.1 µM, first compound 0.3 µM",64.8%
same,"viability, T/C","second compound 0.316 µM, first compound 0.000949 µM",56.4%
same,"viability, T/C","second compound 0.316 µM, first compound 0.003 µM",65.3%
same,"viability, T/C","second compound 0.316 µM, first compound 0.00949 µM",54.2%
same,"viability, T/C","second compound 0.316 µM, first compound 0.03 µM",46.1%
same,"viability, T/C","second compound 0.316 µM, first compound 0.0949 µM",57.3%
same,"viability, T/C","second compound 0.316 µM, first compound 0.3 µM",52.5%
same,"viability, T/C","second compound 1 µM, first compound 0.000949 µM",48.1%
same,"viability, T/C","second compound 1 µM, first compound 0.003 µM",46.2%
same,"viability, T/C","second compound 1 µM, first compound 0.00949 µM",49.8%
same,"viability, T/C","second compound 1 µM, first compound 0.03 µM",41.8%
same,"viability, T/C","second compound 1 µM, first compound 0.0949 µM",47.2%
same,"viability, T/C","second compound 1 µM, first compound 0.3 µM",40.2%
same,"viability, T/C","second compound 3.16 µM, first compound 0.000949 µM",43.1%
same,"viability, T/C","second compound 3.16 µM, first compound 0.003 µM",43.6%
same,"viability, T/C","second compound 3.16 µM, first compound 0.00949 µM",39.1%
same,"viability, T/C","second compound 3.16 µM, first compound 0.03 µM",41.5%
same,"viability, T/C","second compound 3.16 µM, first compound 0.0949 µM",37.7%
same,"viability, T/C","second compound 3.16 µM, first compound 0.3 µM",31.2%
same,"viability, T/C","second compound 10 µM, first compound 0.000949 µM",41.4%
same,"viability, T/C","second compound 10 µM, first compound 0.003 µM",41.7%
same,"viability, T/C","second compound 10 µM, first compound 0.00949 µM",42.9%
same,"viability, T/C","second compound 10 µM, first compound 0.03 µM",35.5%
same,"viability, T/C","second compound 10 µM, first compound 0.0949 µM",30.7%
same,"viability, T/C","second compound 10 µM, first compound 0.3 µM",25%
